# From paper PMC6444592, “Citrullination of HP1γ chromodomain affects association with chromatin” (Epigenetics & Chromatin, 2019)
# Legend:
# Type in all cases: cell-based, mouse
# mESCs [1] = experiment: HP1γ foci formation, fluorescence imaging of mEos3.2; conditions: +/− LIF 72 h
# Method: (§1) Parental E14 mouse embryonic stem cell (mESC) line was profiled by transcriptome analysis, qPCR and potency assays and was routinely tested for mycoplasma contamination and tested negative. Cells were cultured in DMEM (Gibco) supplemented with 15% standard FCS (Gibco), 0.1 mM non-essential amino acids (Gibco), 1% penicillin/streptomycin, 2 mM L-glutamine (Gibco), 1 mM sodium pyruvate (Gibco), 0.1 mM β-mercaptoethanol (Life Technologies) and 10^6 units/l mLIF (ESGRO, Millipore). E14 cells were stored in incubators at 37 °C in 7.5% CO2 (100% humidity) and maintained in 0.1% gelatin coated 10-cm culture dishes with 1:6 passaging every 2 days. Media was changed on a daily basis. E14 ESCs expressing mouse mEos3.2–HaloTag-HP1 fusion proteins were generated by transfecting appropriate pSB7 plasmids into E14 cells using Lipofectamine 2000 transfection reagent (Invitrogen), followed by selection in 600 µg/ml geneticin (Life Technologies). […]
# An IX73 Olympus inverted microscope was used with circularly polarised laser beams aligned and focused at the back aperture of an Olympus 1.40 NA 100 × oil objective (Universal Plan Super Apochromat, 100 × , NA 1.40, UPLSAPO100XO/1.4). […] The fluorescence emission was collected through the same objective and then further filtered using a combination of long-pass and band-pass filters (BLP01-561R and FF01-587/35 for 561 nm excitation). […]
# chromatin = experiment: single-particle tracking, 500 ms, motion blurring: chromatin residence time; conditions: for Percentage, Specific / Percentage, Unspecific / Residence time, Specific / Residence time, Unspecific / Residence time, specific binding: 500 ms; for Residence time, specific binding / specific residence time, in words: −LIF 72 h; for Residence time, specific binding: mESCs, mean ± SD (n = 3); for specific residence time, in words: p value left to right = 0.027, 0.036; for unspecific residence time, effect of LIF withdrawal: ns. p value > 0.841
# Text: Although HP1 is a multifunctional protein, its best-characterised function is its ability to specifically bind to H3 tails harbouring H3K9me3. This underpins the establishment of localised, as well as higher-order, chromatin domains. Indeed, binding of structural chromatin proteins, such as HP1, is crucial in establishing heterochromatin during stem cell differentiation. We therefore decided to focus on the chromatin bound fraction of HP1γ. We used a concept called motion blurring in which long exposures are used to blur molecules that are diffusing so they are not detected. Therefore, only molecules bound throughout the long exposure are imaged. We performed SPT at 500 ms time resolution of mESCs expressing either HP1γWT or HP1γR38/9A mutant proteins (−/+ LIF). Movies of representative cells are shown in Additional file 8: Movie S1, Additional file 9: Movie S2, Additional file 10: Movie S3, and Additional file 11: Movie S4.
# Parental E14 mouse embryonic stem cell (mESC) line was profiled by transcriptome analysis, qPCR and potency assays and was routinely tested for mycoplasma contamination and tested negative. Cells were cultured in DMEM (Gibco) supplemented with 15% standard FCS (Gibco), 0.1 mM non-essential amino acids (Gibco), 1% penicillin/streptomycin, 2 mM L-glutamine (Gibco), 1 mM sodium pyruvate (Gibco), 0.1 mM β-mercaptoethanol (Life Technologies) and 10^6 units/l mLIF (ESGRO, Millipore). E14 cells were stored in incubators at 37 °C in 7.5% CO2 (100% humidity) and maintained in 0.1% gelatin coated 10-cm culture dishes with 1:6 passaging every 2 days. Media was changed on a daily basis. E14 ESCs expressing mouse mEos3.2–HaloTag-HP1 fusion proteins were generated by transfecting appropriate pSB7 plasmids into E14 cells using Lipofectamine 2000 transfection reagent (Invitrogen), followed by selection in 600 µg/ml geneticin (Life Technologies). After 2 weeks of geneticin selection, cells were sorted using a Sony SH800S cell sorter for the expression of mEos3.2. Differentiation of ESCs was induced by LIF withdrawal. ESCs cultured in complete ES cell media (+ LIF) were trypsinised and washed twice in 1x PBS to remove residual LIF, seeded into ES cell media without LIF and incubated for 24, 48 or 72 h.
# An IX73 Olympus inverted microscope was used with circularly polarised laser beams aligned and focused at the back aperture of an Olympus 1.40 NA 100 × oil objective (Universal Plan Super Apochromat, 100 × , NA 1.40, UPLSAPO100XO/1.4). Continuous wavelength diode laser light sources used include a 561-nm (Cobolt, Jive 200, 200 mW) and a 405-nm laser (Stradus, Toptica, 405–100, 100 mW). Oblique angle illumination was achieved by aligning the laser off axis such that the emergent beam at the sample interface was near-collimated and incident at an angle slightly less than the critical angle θc ~ 67° for a glass/water interface. This generated a ~ 50 μm diameter excitation footprint. The power of the collimated beams at the back aperture of the microscope was 10 kW/cm^2 and 10–100 W/cm^2 for the 561-nm and 405-nm laser beams, respectively. The lasers were reflected by dichroic mirrors (Semrock, Di01-R405/488/561/635). The fluorescence emission was collected through the same objective and then further filtered using a combination of long-pass and band-pass filters (BLP01-561R and FF01-587/35 for 561 nm excitation). The emission signal was projected onto an EMCCD (Photometrics, Evolve 512 Delta) with an electron multiplication gain of 250 ADU/photon operating in a frame transfer mode.
# mESCs expressing mEos3.2–HaloTag-tagged HP1γ were passaged 2 days before imaging onto 35-mm glass bottom dishes No 1.0 (MatTek Corporation P35G-1.0-14-C Case) in phenol red-free serum and LIF conditions, if not stated otherwise. […]
# mESCs [2] = experiment: pluripotency marker mRNA (RT-PCR) and morphology of mESCs; conditions: mESCs stably expressing fusion protein; +/− LIF; n = 2
# Method: as §1, with “Technologies). After 2 weeks of geneticin selection, cells were sorted using a Sony SH800S cell sorter for the expression of mEos3.2.” for “Technologies).”
# Cells were lysed using QIAzol® lysis reagent (Qiagen) and total RNA was isolated using RNeasy® Mini Kit with in column DNase treatment (Qiagen). […] Relative expression was calculated with the 2^−ΔΔCt method, normalising to the housekeeping gene β-actin. Data were analysed using GraphPad Prism 7 software. […]
"Residence time, specific binding (chromatin) [s]",Substance,"foci formation, WT- versus R38/9A-expressing cells (mESCs [1])","Percentage, Specific (chromatin; +LIF, replicate i) [%]","Percentage, Unspecific (chromatin; +LIF, replicate i) [%]","Residence time, Specific (chromatin; +LIF, replicate i) [s]","Residence time, Unspecific (chromatin; +LIF, replicate i) [s]","Percentage, Specific (chromatin; +LIF, replicate ii) [%]","Percentage, Unspecific (chromatin; +LIF, replicate ii) [%]","Residence time, Specific (chromatin; +LIF, replicate ii) [s]","Residence time, Unspecific (chromatin; +LIF, replicate ii) [s]","Percentage, Specific (chromatin; +LIF, replicate iii) [%]","Percentage, Unspecific (chromatin; +LIF, replicate iii) [%]","Residence time, Specific (chromatin; +LIF, replicate iii) [s]","Residence time, Unspecific (chromatin; +LIF, replicate iii) [s]","specific residence time, in words (chromatin)","unspecific residence time, effect of LIF withdrawal (chromatin; −LIF 72 h versus +LIF)","Percentage, Specific (chromatin; −LIF, replicate i) [%]","Percentage, Unspecific (chromatin; −LIF, replicate i) [%]","Residence time, Specific (chromatin; −LIF, replicate i) [s]","Residence time, Unspecific (chromatin; −LIF, replicate i) [s]",further results
29.5 ± 4.1,HP1γR38/9A: HP1γ with alanine substitutions at amino acids 38 and 39 to mimic citrullination,no apparent difference,89.000,11.000,26.000,4.100,90.900,9.100,17.900,2.100,82.500,17.500,17.400,1.300,significantly lower than for HP1γWT molecules,no effect,83.000,17.000,34.000,4.900,"specific residence time, in words (chromatin; listed as R38/9A mutant HP1γ): considerably shorter; Percentage, Specific (chromatin; −LIF, replicate ii): 90.800%; Percentage, Unspecific (chromatin; −LIF, replicate ii): 9.200%; Residence time, Specific (chromatin; −LIF, replicate ii): 28.500 s; Residence time, Unspecific (chromatin; −LIF, replicate ii): 1.700 s; Percentage, Specific (chromatin; −LIF, replicate iii): 88.200%; Percentage, Unspecific (chromatin; −LIF, replicate iii): 11.800%; Residence time, Specific (chromatin; −LIF, replicate iii): 25.900 s; Residence time, Unspecific (chromatin; −LIF, replicate iii): 1.800 s; effect of exogenous expression on pluripotency marker mRNA and morphology (mESCs [2]): no discernible effect on mESC differentiation"
49.2 ± 12.3,"HP1γWT: full-length mouse HP1γ wild type, as GST or mEos3.2–HaloTag fusion protein",no apparent difference,91.000,9.000,36.000,4.400,93.400,6.600,27.527,1.549,87.000,13.000,22.800,1.500,significantly increased,no effect,88.000,12.000,55.000,6.000,"increase of specific residence time upon differentiation (chromatin; −LIF 72 h versus +LIF): 20 s; Percentage, Specific (chromatin; −LIF, replicate ii): 93.500%; Percentage, Unspecific (chromatin; −LIF, replicate ii): 6.500%; Residence time, Specific (chromatin; −LIF, replicate ii): 57.488 s; Residence time, Unspecific (chromatin; −LIF, replicate ii): 1.811 s; Percentage, Specific (chromatin; −LIF, replicate iii): 88.000%; Percentage, Unspecific (chromatin; −LIF, replicate iii): 12.000%; Residence time, Specific (chromatin; −LIF, replicate iii): 35.000 s; Residence time, Unspecific (chromatin; −LIF, replicate iii): 2.300 s; effect of exogenous expression on pluripotency marker mRNA and morphology (mESCs [2]): no discernible effect on mESC differentiation"
